Data reported in article PMC5557808 (Nature Communications, 2017).
Values joined by “and” are separate entries in the source; they are usually repeats but may differ in a detail not shown here. Equal values may be shown once. Where a SMILES comes first, the peptide text is derived from it. [ ]: non-standard residue; d: D form. The star is where a group is joined. X1 = CC[N+](CC)(CC(=O)Nc1c(C)cccc1C)Cc1cccc(C(=O)*)c1; Aha = [N-]=[N+]=NCC[C@H](N)C(=O)O

Experiment: Cleavage of PCL denatonium conjugate in collected saliva
Format: in vitro ADME, human
Conditions: agitation, mean ± s.d.
Text: Volunteers were enrolled for a cross-sectional study. One group had peri-implant disease (defined as peri-implantitis or mucositis), the other group were healthy volunteers (asymptomatic patients with at least one dental implant). Unstimulated saliva was collected using an absorbent device. Sulcus fluid was collected from the peri-implant zone using standardized, commercially available MMP-8 collection strips and sent to Dentognostics GmbH (Jena, Germany) for analysis (referred to as chair-side test). Determination of total MMP activity in saliva samples was conducted using the human MMP-8 activity assay (QuickZyme, Leiden, the Netherlands) according to the manufacturer’s instructions. Saliva samples from the cross-sectional study were incubated with D-CLAN3Q (ID #1c) in MMP-8 buffer and cleavage was analyzed by HPLC. Further details are given in the Supplementary Methods.
For the collection of sulcus fluid and saliva from peri-implant d iseased p atien ts and fro m health y volunteers, a cross-section al stud y was initiated with the patient group having either a mucositis or a per i-implantitis vs. health y control. […] In this comparative study, the ability of the sensor diagnostic was assessed to discriminate saliva collected fro m p atien ts with peri -imp lan t disease to as ymp to matic carriers of at least on e i mplant (referred to as healthy control). […]

## CC[C@H](C)[C@H](NC(=O)CNC(=O)[C@H](CCC(N)=O)NC(=O)[C@@H]1CCCN1C(=O)CNC(=O)c1cccc(C[N+](CC)(CC)CC(=O)Nc2c(C)cccc2C)c1)C(=O)N[C@@H](C)C(=O)NCC(=O)N[C@@H](CCC(N)=O)C(=O)N[C@@H](CCN=[N+]=[N-])C(=O)N[C@@H](CCC(N)=O)C(=O)O [ID #1c] (X1-GPQGIAGQ[Aha]Q-OH)
Saliva of healthy volunteers (n = 14) 1:1 with 0.1 mg/mL peptide in MMP buffer pH 6.8-7.0, 37 °C, HPLC decrease of main peak
  Cleavage in saliva, healthy subjects, 5-10 min: 1.5 ± 0.8%
Saliva of patients with peri-implant disease (n = 19) 1:1 with 0.1 mg/mL peptide in MMP buffer pH 6.8-7.0, 37 °C, HPLC
  Cleavage in saliva, diseased subjects, 5-10 min: 4.2 ± 3.34% and < 5%
